The record followed here is patent publication US20240109868A1, “EP300/CBP MODULATOR, PREPARATION METHOD THEREFOR AND USE THEREOF” (Miracure Biotechnology Limited, priority 2022, published 2024).

pIC50: −log10 of the molar value.

The first assay concerns 22Rv1 Cell. Nature of the assay: 22RV1 cell growth inhibition, CellTiter-Glo, 72 h. Particulars: Homo sapiens, 22Rv1, 72 h, 22RV1 cells, 72 h culture. Type of assay: cell-based. As to the method:
(§1) 22RV1 or vCap cells were cultured in RPMI-1640 medium (10% fetal bovine serum and 100 units (per mL) of penicillin/streptomycin dual antibody were added to RPMI-1640) in a 37° C., 5% CO2 cell incubator. Cells at the logarithmic growth phase were inoculated onto a 96-well cell culture plate at 5×10^3 cells/100 μL/well and cultured overnight. Solutions of different concentrations of an active compound in DMSO were added, with the final concentration being 0.5% DMSO. The positive control was 1% TweeN2O, and the negative control was 0.5% DMSO. After 72 h of culture, an equal volume of CellTiter-Glo was added to each well, and the mixtures were mixed homogeneously by shaking for 2 min. The plate was let stand at room temperature for 10 min, and fluorescence signal values were read using a microplate reader. Data were analyzed using Prism 7.0 and graphs were generated. The values are shown as mean f SEM (N=2). […] The X-axis represents compound concentration (μM), and the Y-axis represents % inhibition.
In general terms: In ATP-based viability assays light output follows the ATP content of the culture.
`CC(=O)N1Cc2cc(C3CCC([S@](C)(=N)=O)CC3)cc(N3CCCc4cc(-c5cnn(C)c5)c(C(F)F)cc43)c2C1` (stereo in doubt) [Compound M001330] gave a pIC50 below 6.00. The same measure, in the same setting: with `CC(=O)N1Cc2cc(N3CCOCC3)cc(N3CCCc4cc(-c5cnn(C)c5)c(C(F)F)cc43)c2C1` [Compound M001001] the figure was below 6.00; with `CC(=O)N1Cc2cc(N3CCNCC3)cc(N3CCCc4cc(-c5cnn(C)c5)c(C(F)F)cc43)c2C1` [Compound M001002], below 6.00. Still for that read-out and setting: for `CC(=O)N1Cc2cc(N3CCN(C)CC3)cc(N3CCCc4cc(-c5cnn(C)c5)c(C(F)F)cc43)c2C1` [Compound M001003] the value was below 6.00; for `CC(=O)N1Cc2cc(N3CCSCC3)cc(N3CCCc4cc(-c5cnn(C)c5)c(C(F)F)cc43)c2C1` [Compound M001004], below 6.00; for `CNC(=O)N1CCc2cc(N3CCOCC3)cc(N3CCCc4cc(-c5cnn(C)c5)c(C(F)F)cc43)c2C1` [Compound M001014, 8-(7-(difluoromethyl)-6-(1-methyl-1H-pyrazol-4-yl)-3,4-dihydroquinolin-1(2H)-yl)-N-methyl-6-morpholine-3,4-dihydroisoquinoline-2(1H)-carboxamide], below 6.00. The same measure, in the same setting: with `CNC(=O)N1CCc2cc(CN3CCCC(C(=O)O)C3)cc(N3CCCc4cc(-c5cnn(C)c5)c(C(F)F)cc43)c2C1` (centres unmarked) [Compound M001015] the figure was below 6.00; with `CNC(=O)N1CCc2cc(CN3CCC(C(=O)O)CC3)cc(N3CCCc4cc(-c5cnn(C)c5)c(C(F)F)cc43)c2C1` [Compound M001016], below 6.00. For the molecule `CNC(=O)N1CCc2cc(C3CCC(=O)N(CC(C)O)C3)cc(N3CCCc4cc(-c5cnn(C)c5)c(C(F)F)cc43)c2C1` (centres unmarked) [Compound M001223], the pIC50 was below 6.00. The same measure, in the same setting: for `CC(=O)N1Cc2cc(C3CCC(=O)N(CC(C)O)C3)cc(N3CCCc4cc(-c5cnn(C)c5)c(C(F)F)cc43)c2C1` (centres unmarked) [Compound M001226] the value was below 6.00; for `CC(=O)N1Cc2cc(C3CCC(=O)N(C)C3)cc(N3CCCc4cc(-c5cn(C)nc5C(=O)N(C)C)c(C(F)F)cc43)c2C1` (centres unmarked) [Compound M001227], below 6.00. On to `CNC(=O)N1CCc2cc(C3CCC(=O)N(C)C3)cc(Nc3cc(C(F)F)c(-c4cnn(C)c4)cc3F)c2C1` (centres unmarked) [Compound M001232, 8-((5-(difluoromethyl)-2-fluoro-4-(1-methyl-1H-pyrazol-4-yl)phenyl)amino)-N-methyl-6-(1-methyl-6-oxopiperidin-3-yl)-3,4-dihydroisoquinoline-2(1H)-carboxamide], for which the negative logarithm of the IC50 (pIC50) was below 6.00. On the same count and under the same terms, for `CC(=O)N1Cc2cc(C3CCC(=O)N(C)C3)cc(Nc3cc(C(F)F)c(-c4cnn(C)c4)cc3F)c2C1` (centres unmarked) [Compound M001233] the value was below 6.00; for `CC(=O)N1Cc2cc(C3COC(=O)N(C)C3)cc(N3CCCc4cc(-c5cnn(C)c5)c(C(F)F)cc43)c2C1` (centres unmarked) [Compound M001238], below 6.00. Still for that read-out and setting: for `CNC(=O)N1CCc2cc(C3CCN(CC(C)O)C(=O)C3)cc(Nc3cc(C(F)F)c(-c4cnn(C)c4)cc3F)c2C1` (centres unmarked) [Compound M001240] the value was below 6.00.

On to `CC(=O)N1Cc2cc(C3CCN(CC(C)O)C(=O)C3)cc(Nc3cc(C(F)F)c(-c4cnn(C)c4)cc3F)c2C1` (centres unmarked) [Compound M001241], for which the pIC50 is below 6.00. Still for that read-out and setting: for `CC(=O)N1Cc2cc(C3CCN(CCO)C(=O)C3)cc(N3CCCc4cc(-c5cnn(C)c5)c(C(F)F)cc43)c2C1` (centres unmarked) [Compound M001247] the value was below 6.00.

For the molecule `CNC(=O)N1CCc2cc(C3CCN(CCO)C(=O)C3)cc(N3CCCc4cc(-c5cnn(C)c5)c(C(F)F)cc43)c2C1` (centres unmarked) [Compound M001248], the pIC50 was below 6.00. Still for that read-out and setting: for `CC(=O)N1Cc2cc(C3CCN(CCF)C(=O)C3)cc(N3CCCc4cc(-c5cnn(C)c5)c(C(F)F)cc43)c2C1` (centres unmarked) [Compound M001250] the value was below 6.00; for `CNC(=O)N1CCc2cc(C3CCN(CCF)C(=O)C3)cc(N3CCCc4cc(-c5cnn(C)c5)c(C(F)F)cc43)c2C1` (centres unmarked) [Compound M001251], below 6.00; for `CC(=O)N1Cc2cc(C3CCN(CC(F)F)C(=O)C3)cc(N3CCCc4cc(-c5cnn(C)c5)c(C(F)F)cc43)c2C1` (centres unmarked) [Compound M001254], above 6.00.

The molecule `CNC(=O)N1CCc2cc(C3CCN(CC(F)F)C(=O)C3)cc(N3CCCc4cc(-c5cnn(C)c5)c(C(F)F)cc43)c2C1` (centres unmarked) [Compound M001255] had a pIC50 above 6.00. The same measure, in the same setting: with `CNC(=O)N1CCc2cc(C3CCC(=O)N(CCF)C3)cc(N3CCCc4cc(-c5cnn(C)c5)c(C(F)F)cc43)c2C1` (centres unmarked) [Compound M001256] the figure was below 6.00; with `CC(=O)N1Cc2cc(C3CCC(=O)N(CCF)C3)cc(N3CCCc4cc(-c5cnn(C)c5)c(C(F)F)cc43)c2C1` (centres unmarked) [Compound M001257], below 6.00; with `CC(=O)N1Cc2cc(C3CCCNC3=O)cc(N3CCCc4cc(-c5cnn(C)c5)c(C(F)F)cc43)c2C1` (centres unmarked) [Compound M001258], below 6.00.

`CCN1CCN(c2cc3c(c(N4CCCc5cc(-c6cnn(C)c6)c(C(F)F)cc54)c2)CN(C(C)=O)C3)CC1=O` [Compound M001262] gave a negative logarithm of the IC50 (pIC50) below 6.00. In the case of `COC(=O)N1CCc2cc(C3CCOCC3)cc(N3CCCc4cc(-c5cnn(C)c5)c(C(F)F)cc43)c2C1` [Compound M001270], the pIC50 is below 6.00. The same measure, in the same setting: with `COC(=O)N1CCc2cc(C3CCC(OC)CC3)cc(N3CCCc4cc(-c5cnn(C)c5)c(C(F)F)cc43)c2C1` (centres unmarked) [Compound M001271] the figure was below 6.00; with `CNC(=O)N1CCc2cc(C3CCN(O)CC3)cc(N3CCCc4cc(-c5cnn(C)c5)c(C(F)F)cc43)c2C1` [Compound M001276, 8-[7-(difluoromethyl)-6-(1-methylpyrazol-4-yl)-3,4-dihydro-2H-quinolin-1-yl]-6-(1-hydroxypiperidin-4-yl)-N-methyl-3,4-dihydro-1H-isoquinoline-2-carboxamide], below 6.00. The same measure, in the same setting: for `CC(=O)N1Cc2cc(C3CCN(O)CC3)cc(N3CCCc4cc(-c5cnn(C)c5)c(C(F)F)cc43)c2C1` [Compound M001277] the value was below 6.00. `CNC(=O)N1CCc2cc(C3CCN(C4CCC(=O)NC4=O)C(=O)C3)cc(N3CCCc4cc(-c5cnn(C)c5)c(C(F)F)cc43)c2C1` (centres unmarked) [Compound M001287] had a pIC50 below 6.00. On the same count and under the same terms, with `CNC(=O)N1CCc2cc(-c3ccn(C4CCC(=O)NC4=O)c(=O)c3)cc(N3CCCc4cc(-c5cnn(C)c5)c(C(F)F)cc43)c2C1` (centres unmarked) [Compound M001300, 8-(7-(difluoromethyl)-6-(1-methyl-1H-pyrazol-4-yl)-3,4-dihydroquinolin-1(2H)-yl)-6-(1-(2,6-dioxopiperidin-3-yl)-2-oxo-1,2-dihydropyridin-4-yl)-N-methyl-3,4-dihydroisoquinoline-2(1H)-carboxamide] the figure was below 6.00; with `CNC1CCC(c2cc3c(c(N4CCCc5cc(-c6cnn(C)c6)c(C(F)F)cc54)c2)CN(C(C)=O)C3)CC1` (centres unmarked) [Compound M001302], below 6.00. Same read-out and setting: for `CC(=O)N1Cc2cc([C@H]3CC[C@@H](N(C)C)CC3)cc(N3CCCc4cc(-c5cnn(C)c5)c(C(F)F)cc43)c2C1` [Compound M001303] the value was below 6.00; for `CC(=O)N1Cc2cc([C@H]3CC[C@@H](NS(C)(=O)=O)CC3)cc(N3CCCc4cc(-c5cnn(C)c5)c(C(F)F)cc43)c2C1` [Compound M001305], above 6.00; for `CNC(=O)N1CCc2cc(C3CCN(S(C)(=O)=O)CC3)cc(N3CCCc4cc(-c5cnn(C)c5)c(C(F)F)cc43)c2C1` [Compound M001306], below 6.00. Same read-out and setting: for `CC(=O)N[C@H]1CC[C@@H](c2cc3c(c(N4CCCc5cc(-c6cnn(C)c6)c(C(F)F)cc54)c2)CN(C(C)=O)C3)CC1` [Compound M001308] the value was above 6.00; for `CC(=O)N1Cc2cc([C@H]3CC[C@H](NS(C)(=O)=O)CC3)cc(N3CCCc4cc(-c5cnn(C)c5)c(C(F)F)cc43)c2C1` [Compound M001309], above 6.00. In the case of `CN[C@H]1CC[C@H](c2cc3c(c(N4CCCc5cc(-c6cnn(C)c6)c(C(F)F)cc54)c2)CN(C(C)=O)C3)CC1` [Compound M001311], the pIC50 was below 6.00. The same measure, in the same setting: for `CC(=O)N1Cc2cc([C@H]3CC[C@H](N(C)C)CC3)cc(N3CCCc4cc(-c5cnn(C)c5)c(C(F)F)cc43)c2C1` [Compound M001312] the value was below 6.00. On the same count and under the same terms, with `CNC(=O)N1CCc2cc(C3CCC(NS(C)(=O)=O)CC3)cc(N3CCCc4cc(-c5cnn(C)c5)c(C(F)F)cc43)c2C1` (centres unmarked) [Compound M001314] the figure was below 6.00. The same measure, in the same setting: with `CNC(=O)N1CCc2cc([C@H]3CC[C@@H](NC(C)=O)CC3)cc(N3CCCc4cc(-c5cnn(C)c5)c(C(F)F)cc43)c2C1` [Compound M001316] the figure was below 6.00; with `CNC(=O)N1CCc2cc([C@H]3CC[C@H](NC(C)=O)CC3)cc(N3CCCc4cc(-c5cnn(C)c5)c(C(F)F)cc43)c2C1` [Compound M001317], below 6.00; with `CNC(=O)N1CCc2cc([C@H]3CC[C@@H](N)CC3)cc(N3CCCc4cc(-c5cnn(C)c5)c(C(F)F)cc43)c2C1` [Compound M001318], below 6.00. For the molecule `CNC(=O)N1CCc2cc([C@H]3CC[C@H](N)CC3)cc(N3CCCc4cc(-c5cnn(C)c5)c(C(F)F)cc43)c2C1` [Compound M001319], the pIC50 was below 6.00.

The next assay deals with vCap Cell. In words: vCap cell growth inhibition, CellTiter-Glo, 72 h. The class given is cell-based. As to conditions: Homo sapiens, VCaP, 72 h, vCap cells, 72 h culture. As to the method:
as §1
`CC(=O)N1Cc2cc(C3CCC([S@](C)(=N)=O)CC3)cc(N3CCCc4cc(-c5cnn(C)c5)c(C(F)F)cc43)c2C1` (stereo in doubt) [Compound M001330] had a pIC50 below 6.00. Still for that read-out and setting: with `CC(=O)N1Cc2cc(N3CCOCC3)cc(N3CCCc4cc(-c5cnn(C)c5)c(C(F)F)cc43)c2C1` [Compound M001001] the figure was below 6.00; with `CC(=O)N1Cc2cc(N3CCNCC3)cc(N3CCCc4cc(-c5cnn(C)c5)c(C(F)F)cc43)c2C1` [Compound M001002], below 6.00. Same read-out and setting: for `CC(=O)N1Cc2cc(N3CCN(C)CC3)cc(N3CCCc4cc(-c5cnn(C)c5)c(C(F)F)cc43)c2C1` [Compound M001003] the value was below 6.00. The molecule `CC(=O)N1Cc2cc(N3CCSCC3)cc(N3CCCc4cc(-c5cnn(C)c5)c(C(F)F)cc43)c2C1` [Compound M001004] showed a pIC50 below 6.00. On the same count and under the same terms, for `CNC(=O)N1CCc2cc(N3CCOCC3)cc(N3CCCc4cc(-c5cnn(C)c5)c(C(F)F)cc43)c2C1` [Compound M001014, 8-(7-(difluoromethyl)-6-(1-methyl-1H-pyrazol-4-yl)-3,4-dihydroquinolin-1(2H)-yl)-N-methyl-6-morpholine-3,4-dihydroisoquinoline-2(1H)-carboxamide] the value was below 6.00; for `CNC(=O)N1CCc2cc(CN3CCCC(C(=O)O)C3)cc(N3CCCc4cc(-c5cnn(C)c5)c(C(F)F)cc43)c2C1` (centres unmarked) [Compound M001015], below 6.00; for `CNC(=O)N1CCc2cc(CN3CCC(C(=O)O)CC3)cc(N3CCCc4cc(-c5cnn(C)c5)c(C(F)F)cc43)c2C1` [Compound M001016], below 6.00.

One may read the pIC50 as −log10 of the IC50, conventionally taken in molar units. A lower pIC50 goes with a high IC50.
